Measurements taken from article PMC7911516, “Investigation of the Factors Responsible for the Poor Oral Bioavailability of Acacetin in Rats: Physicochemical and Biopharmaceutical Aspects” (Pharmaceutics, 2021).

Experiment: Parallel artificial membrane permeability assay (PAMPA)
Type: in vitro ADME
Settings: GIT PAMPA Double Sink
Experimental: Simulated intestinal fluid (SIF) was prepared by dissolving 3 mM sodium taurocholate and 0.1% (w/v) pancreatin in phosphate buffer (final pH = 7.0). The solubility of acacetin was measured by adding excessive amounts of acacetin into glass vials containing 1.5 mL of water, pH 7.4 phosphate buffer, SGF, and SIF. […] The samples were centrifuged at 16,000× g for 5 min, and the supernatant was passed through a 0.20-μm syringe filter to remove excess acacetin. Further, the concentration of acacetin in the filtrate was determined using the LC-MS/MS method. […] Finally, the acacetin concentrations in the octanol and water layers were determined using the LC-MS/MS method. […] The PAMPA was conducted using a commercially available PAMPA kit (GIT PAMPA Double Sink; pION Inc., Massachusetts, MA, USA) according to the manufacturer's protocol. The permeability was calculated using pION PAMPA Explorer ver. 3.8 software (pION Inc., Massachusetts, MA, USA).

Papp: 0.411 ×10⁻⁶ cm/s
SMILES: CNC(=C[N+](=O)[O-])NCCSCc1ccc(CN(C)C)o1 [ranitidine, reference compound]
